Data published in paper PMC7450057, “Enhancing intracellular accumulation and target engagement of PROTACs with reversible covalent chemistry” (Nature Communications, 2020).
“And” between values parts separate entries of the source, which are not always exact repeats. Equal values may be shown once. “Also recorded” adds a separate entry of the source.

Columns and labels:
IKZF3 = test: Splenic IKZF3 level in mice after single RC-1 injection (western blot); type: in vivo, ICR mice; details: for IKZF3 level, mean: Figure 5d, DMSO = 100; for IKZF3 quantification: Supplementary Figure 8, individual animals
Experimental: (§1) To investigate the protein degradation effect of RC-1 in vivo, mice were subjected to single RC-1 administration at the dose of 50 or 100 mg kg^−1 (i.p.) or seven once-daily RC-1 administration at the dose of 20 mg kg^−1 (i.p.) (n = 2–3). Twenty-four hours after the one-time RC-1 injection or 24 h after the 7th injection, mice were anesthetized with isoflurane and the whole spleen was dissected and stored at −80 °C for western blot analysis of protein level.
(§2) Supplementary Figure 8. Protein degradation by BTK PROTAC RC-1 in mouse spleen. ICR mice were subjected to single IP injection of RC-1 at the dose of 50 mg/kg (n = 4) or 100 mg/kg (n = 3) and spleens were harvested 24 h after injection. (a) The splenic p-BTK(Y233), BTK, IKZF1 and IKZF3 levels were measured with Western blot. (b). Quantification of protein levels shown in (a). Data are presented as mean values ± SEM.
(§3) Asterisks indicate that the differences between samples are statistically significant, using two-tailed, unpaired t- […]
(§4) test (* p < 0.05; significant).
(§5) (1 picture or pasted object on this page, not shown here)

C481S mutant BTK = biological target: T1, C481S mutant BTK (Homo sapiens, UniProt Q06187, C481S); test: BTK degradation in XLA cells overexpressing C481S mutant BTK (western blot); type: cell-based; details: 24 h
T1 construct: expressed in transfected cells; host or cells: XLA cells (gift from Dr. Woyach)
T1 sequence (Q06187 whole entry C481S): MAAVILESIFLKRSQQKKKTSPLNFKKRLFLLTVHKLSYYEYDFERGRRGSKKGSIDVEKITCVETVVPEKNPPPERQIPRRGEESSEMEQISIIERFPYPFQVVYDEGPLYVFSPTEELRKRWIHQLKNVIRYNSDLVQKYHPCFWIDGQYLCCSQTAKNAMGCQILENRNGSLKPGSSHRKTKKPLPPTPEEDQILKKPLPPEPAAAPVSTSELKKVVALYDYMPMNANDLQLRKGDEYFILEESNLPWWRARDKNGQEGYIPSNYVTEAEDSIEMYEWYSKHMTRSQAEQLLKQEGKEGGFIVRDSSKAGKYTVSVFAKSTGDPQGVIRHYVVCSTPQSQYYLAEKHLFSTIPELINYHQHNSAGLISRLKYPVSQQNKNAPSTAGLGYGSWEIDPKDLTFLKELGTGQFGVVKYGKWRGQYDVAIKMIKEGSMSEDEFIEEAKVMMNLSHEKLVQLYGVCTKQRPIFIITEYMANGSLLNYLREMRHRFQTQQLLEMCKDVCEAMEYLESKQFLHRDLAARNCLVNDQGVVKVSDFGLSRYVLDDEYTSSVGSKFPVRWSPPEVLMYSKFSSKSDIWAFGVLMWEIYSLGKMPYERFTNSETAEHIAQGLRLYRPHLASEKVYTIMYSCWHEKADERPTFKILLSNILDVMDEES
Experimental: (§6) XLA cells overexpressing wild-type BTK or mutant C481S BTK were plated at the same cell number and density as the above experiments and were treated with RC-1, IRC-1, or RNC-1 at the dose of 1.6, 8.0, 40, 200, and 1000 nM for 24 h. After completion of treatment, all the cells were collected and processed for western blot analysis.
(§7) The collected cells and spleen tissues were lysed in RIPA lysis buffer (50 mM Tris-HCl, pH 7.4, 150 mM NaCl, 1% NP-40, 0.5% sodium deoxycholate, 0.1% SDS) supplemented with Halt™ Protease and Phosphatase Inhibitor Cocktail (Thermo Fisher Scientific, Cat. No. PI78440) immediately before use. Lysates were centrifuged at 15,000 × g for 10 min at 4 °C and the supernatant was quantified for total protein concentration using the Pierce BCA Protein Assay (Thermo Fisher Scientific, Cat. No. 23225). Thirty micrograms of protein were loaded onto sodium dodecyl sulfate−polyacrylamide gel for electrophoresis (Bio-Rad) and transferred onto PVDF membranes (Millipore, Cat. No. IPVH00010). […] Imaging was performed using the ECL Prime chemiluminescent western blot detection reagents (GE Healthcare, Cat. No. RPN2232) by visualization of the blots to X-Ray film or with an Imager (Kindle Biosciences, Cat. No. D1001). All western blots were subsequently processed and quantified with Imager software. Protein level was normalized to β-actin or GAPDH loading controls.

Mino cells = test: AlamarBlue cell viability assay, Mino; type: cell-based; details: for Mino Cell Viability%: Figure 2f, 5 replicates
Experimental: The IC50 was calculated using GraphPad Prism software with a four-parameter dose-response curve fit.

IKZF1 = test: Splenic IKZF1 level in mice after single RC-1 injection (western blot); type: in vivo, ICR mice; details: for IKZF1 level, mean: Figure 5d, DMSO = 100; for IKZF1 quantification: Supplementary Figure 8, individual animals
Experimental: as §1, §2, §3, §4, §5

[1] = biological target: truncated Cereblon protein (Homo sapiens, UniProt Q96SW2); test: CRBN binding assay (fluorescence quenching); details: for Fluorescence Intensity: Supplementary Figure 11, replicates
truncated Cereblon protein, sequence (Q96SW2 318-426): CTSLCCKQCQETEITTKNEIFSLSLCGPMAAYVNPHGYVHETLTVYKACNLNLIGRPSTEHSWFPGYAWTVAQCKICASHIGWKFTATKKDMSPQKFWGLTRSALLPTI
Experimental: The Kd values of compounds to CRBN were measured based on fluorescence quenching after compounds binding to CRBN. […] All the compounds were dissolved in DMSO (10 mM) as stock solutions. The final drug concentration is 100 nM. […] Fluorescence intensity values for control wells (assay buffer only) were subtracted from each data point prior to analysis. The Kd was calculated using GraphPad Prism with the following equation curve fit. I=I0−If×Kd/P0+Kd+If

BTK = BTK (Mus musculus, UniProt P35991); test: Pharmacodynamics: splenic BTK level in mice (western blot); type: in vivo, ICR mice; parameters: from tissue; host or cells: spleen of female ICR mice; details: for BTK level, mean: Figure 5d, DMSO = 100; for BTK quantification: Supplementary Figure 8, individual animals
BTK, sequence (P35991 whole entry): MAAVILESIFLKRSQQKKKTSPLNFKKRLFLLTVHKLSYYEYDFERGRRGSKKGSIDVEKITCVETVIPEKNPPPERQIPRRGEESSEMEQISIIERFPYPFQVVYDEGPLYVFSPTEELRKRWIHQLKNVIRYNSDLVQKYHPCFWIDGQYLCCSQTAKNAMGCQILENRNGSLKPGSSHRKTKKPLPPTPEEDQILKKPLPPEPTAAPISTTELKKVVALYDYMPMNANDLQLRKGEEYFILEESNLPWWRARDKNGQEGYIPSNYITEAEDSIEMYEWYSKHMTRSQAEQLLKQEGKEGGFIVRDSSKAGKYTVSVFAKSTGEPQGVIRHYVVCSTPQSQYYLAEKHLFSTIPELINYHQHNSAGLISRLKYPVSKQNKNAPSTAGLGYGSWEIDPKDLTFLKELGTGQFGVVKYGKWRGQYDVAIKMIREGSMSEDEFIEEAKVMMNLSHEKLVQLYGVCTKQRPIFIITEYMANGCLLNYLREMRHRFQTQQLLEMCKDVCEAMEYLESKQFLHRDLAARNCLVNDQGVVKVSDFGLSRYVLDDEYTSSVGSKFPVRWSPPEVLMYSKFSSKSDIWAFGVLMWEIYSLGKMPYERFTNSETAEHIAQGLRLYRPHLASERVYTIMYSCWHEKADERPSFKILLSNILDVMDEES
Experimental: as §7, §1

Jeko-1 = test: IC50 in MCL cell lines (Supplementary Table 2), Jeko-1; details: for Cell Viability (%): Jeko-1 cells, replicate wells
[2] = tested on: BTK, pBTK, IKZF1, and IKZF3; test: Degradation of BTK, pBTK, IKZF1 and IKZF3 in Mino cells (western blot); type: cell-based
Experimental: as §7

Mino = test: IC50 in MCL cell lines (Supplementary Table 2), Mino; details: for Cell Viability (%): Mino cells, replicate wells
wild-type BTK = biological target: T2, wild-type BTK (Homo sapiens, UniProt Q06187); test: BTK degradation in XLA cells overexpressing wild-type BTK (western blot); type: cell-based; details: 24 h
T2 construct: expressed in transfected cells; host or cells: XLA cells (gift from Dr. Woyach)
T2 sequence (Q06187 whole entry): as the sequence (Q06187 whole entry C481S) above, with S481C counted along it
Experimental: as §6, §7

Maver-1 = test: IC50 in MCL cell lines (Supplementary Table 2), Maver-1; details: for Cell Viability (%): Maver-1 cells, replicate wells
p-BTK(Y233) = biological target: T3, p-BTK(Y233) (Mus musculus, UniProt P35991); test: Splenic p-BTK(Y233) level in mice after single RC-1 injection (western blot); type: in vivo, ICR mice; details: for p-BTK(Y223) level, mean: Figure 5d, DMSO = 100; for p-BTK(Y233) quantification: Supplementary Figure 8, individual animals
T3 construct: from tissue; host or cells: spleen of female ICR mice
T3 sequence (P35991 whole entry): as the sequence (P35991 whole entry) above
Experimental: as §1, §2, §3, §4, §5

## CN(CCCNC(=O)CNc1cccc2c1C(=O)N(C1CCC(=O)NC1=O)C2=O)C(C)(C)C=C(C#N)C(=O)N1CCC[C@@H](n2nc(-c3ccc(Oc4ccccc4)cc3)c3c(N)ncnc32)C1 (stereo partly drawn) [RC-1]
IKZF3; 1 injection
  IKZF3 level, mean: 34.6975
IKZF3; 7 injections
  IKZF3 level, mean: 73.2929
IKZF3; RC-1 50 mg/kg, 50 mg/kg
  IKZF3 quantification: 18.4248 and 33.3032 and 114.952 and 16.6702
IKZF3; RC-1 100 mg/kg, 100 mg/kg
  IKZF3 quantification: 2.1 and 60.2254 and 21.7286
C481S mutant BTK
  BTK degradation (in words): dose-dependent BTK degradation; also recorded: degrades both wild-type BTK and the C481S mutant with similar potency
Mino cells; 1.00E-06 M
  Mino Cell Viability%: 28.3764% and 24.0469% and 29.6497% and 18.1013% and 27.4262%
Mino cells; 1.60E-09 M
  Mino Cell Viability%: 86.471% and 91.0355% and 88.9002% and 84.3749% and 77.1755%
Mino cells; 2.00E-07 M
  Mino Cell Viability%: 40.1501% and 37.7601% and 35.1644% and 26.339% and 31.6381%
Mino cells; 3.20E-10 M
  Mino Cell Viability%: 96.9028% and 99.5475% and 70.4757% and 81.6714% and 61.4054%
Mino cells; 4.00E-08 M
  Mino Cell Viability%: 90.2127% and 74.3055% and 49.5631% and 47.134% and 61.6895%
Mino cells; 5.00E-06 M
  Mino Cell Viability%: 17.0239% and 17.5724% and 29.8456% and 19.8449% and 25.2419%
Mino cells; 8.00E-09 M
  Mino Cell Viability%: 98.4014% and 91.3588% and 67.7918% and 72.9048% and 65.2157%
Mino cells; Homo sapiens, Mino cells, 72 h, Alamar Blue
  IC50: 80 nM
IKZF1; 1 injection
  IKZF1 level, mean: 82.288
IKZF1; 7 injections
  IKZF1 level, mean: 77.6802
IKZF1; RC-1 50 mg/kg, 50 mg/kg
  IKZF1 quantification: 32.4273 and 61.2234 and 87.896 and 43.9089
IKZF1; RC-1 100 mg/kg, 100 mg/kg
  IKZF1 quantification: 24.57 and 78.1459 and 58.0151
[1]; CRBN 0 μM
  Fluorescence Intensity: 4127.8 and 4128.8 and 3844.8
[1]; CRBN 0.734375 μM
  Fluorescence Intensity: 3220.8 and 3187.8 and 3673.8
[1]; CRBN 1.46875 μM
  Fluorescence Intensity: 3204.8 and 3148.8 and 2908.8
[1]; CRBN 2.9375 μM
  Fluorescence Intensity: 2864.8 and 2662.8 and 2860.8
[1]; CRBN 5.875 μM
  Fluorescence Intensity: 2528.8 and 2598.8 and 2686.8
[1]; CRBN 11.75 μM
  Fluorescence Intensity: 1735.8 and 1776.8 and 2083.8
[1]; CRBN 23.5 μM
  Fluorescence Intensity: 1563.8 and 1722.8 and 1455.8
[1]; truncated Cereblon protein, fluorescence quenching, triplicates
  Kd: 4200 nM
BTK; 20 mg kg^−1 i.p., 7 daily injections, vs vehicle-treated mice
  BTK level reduction in the spleens: ~ 50%
BTK; 1 injection
  BTK level, mean: 58.8522
BTK; 7 injections
  BTK level, mean: 59.7357
BTK; RC-1 50 mg/kg, 50 mg/kg
  BTK quantification: 56.2321 and 63.4217 and 82.4136 and 62.324
BTK; RC-1 100 mg/kg, 100 mg/kg
  BTK quantification: 59.6665 and 43.7954 and 40.8615
Jeko-1; Jeko-1, triplicates
  IC50: 200 nM
Jeko-1; 1.25E-06 M
  Cell Viability (%): 8.1% and 9.79% and 4.911%
Jeko-1; 1.56E-07 M
  Cell Viability (%): 59.0193% and 84.765% and 42.1211%
Jeko-1; 2.50E-06 M
  Cell Viability (%): 5.234% and 3.584% and 4.277%
Jeko-1; 3.13E-07 M
  Cell Viability (%): 35.9177% and 48.9386% and 32.3116%
Jeko-1; 5.00E-06 M
  Cell Viability (%): 6.285% and 4.711% and 5.303%
Jeko-1; 6.25E-07 M
  Cell Viability (%): 26.3007% and 22.6601% and 16.326%
Jeko-1; 7.81E-08 M
  Cell Viability (%): 58.1018% and 72.8615% and 48.2775%
[2]
  degradation of BTK, pBTK, IKZF1, IKZF3 (in words): induced degradation of BTK, pBTK, IKZF1, and IKZF3; also recorded: can degrade not only BTK and phosphorylated BTK but also IKZF1 and IKZF3
Mino; 1.25E-06 M
  Cell Viability (%): 39.6721% and 39.1711% and 38.89%
Mino; 1.56E-07 M
  Cell Viability (%): 67.6678% and 68.2351% and 62.6329%
Mino; 2.50E-06 M
  Cell Viability (%): 36.14% and 35.6851% and 33.7887%
Mino; 3.13E-07 M
  Cell Viability (%): 53.7594% and 53.6077% and 49.7111%
Mino; 5.00E-06 M
  Cell Viability (%): 32.4512% and 31.601% and 30.272%
Mino; 6.25E-07 M
  Cell Viability (%): 49.0909% and 46.392% and 45.7071%
Mino; 7.81E-08 M
  Cell Viability (%): 89.7818% and 79.7053% and 78.5229%
Mino; Mino, triplicates
  IC50: 400 nM
wild-type BTK
  BTK degradation (in words): dose-dependent BTK degradation; also recorded: degrades both wild-type BTK and the C481S mutant with similar potency
Maver-1; Maver-1, triplicates
  IC50: 3300 nM
Maver-1; 1.25E-06 M
  Cell Viability (%): 72.3477% and 75.344% and 75.6032%
Maver-1; 1.56E-07 M
  Cell Viability (%): 94.303% and 94.8872% and 90.9031%
Maver-1; 2.50E-06 M
  Cell Viability (%): 56.7361% and 58.5739% and 54.2977%
Maver-1; 3.13E-07 M
  Cell Viability (%): 94.0011% and 92.8623% and 88.8158%
Maver-1; 5.00E-06 M
  Cell Viability (%): 44.682% and 45.5221% and 44.0945%
Maver-1; 6.25E-07 M
  Cell Viability (%): 91.7892% and 94.3523% and 87.1487%
Maver-1; 7.81E-08 M
  Cell Viability (%): 97.5389% and 95.4976% and 96.2656%
p-BTK(Y233); 1 injection
  p-BTK(Y223) level, mean: 96.2894
p-BTK(Y233); 7 injections
  p-BTK(Y223) level, mean: 85.9605
p-BTK(Y233); RC-1 50 mg/kg, 50 mg/kg
  p-BTK(Y233) quantification: 61.7244 and 50.2464 and 71.4895 and 26.7569
p-BTK(Y233); RC-1 100 mg/kg, 100 mg/kg
  p-BTK(Y233) quantification: 42.1872 and 10.8062 and 16.7176
